Laboratory results published in patent US20200345637A1, “SUSPENSION COMPOSITIONS OF MULTI-TARGET INHIBITORS” (AIVIVA BIOPHARMA, INC., priority 2018, published 2020).
In brackets after ≈: the same amount, converted by molar mass. Several values for one entry are separate records, joined by “and”; a condition that tells them apart may be missing. Identical values can stand only once. Like-named read-outs stand apart in the source and are kept apart here.

Columns and labels:
[1] = Aqueous solubility of multi-target inhibitors; assay type: physicochemical; conditions: aqueous (not further specified)
Description: Non-limiting examples of the useful multi-target inhibitors and their physicochemical forms are given in Table 1 with aqueous solubility information.

[2] = Suspension physical testing: particle size, pH, osmolality, syringeability; assay type: physicochemical; design: API Raw Material PSD D50 / Formulated Suspension Particle size distribution D50 / API Raw Material PSD D90 / Formulated Suspension Particle size distribution D90: unit not given here; conditions: for Formulated Suspension Syringeability: needle gauge passed
Description: (§1) Examples 1-3 depict the results of physical testing of some subject formulations.

[3] = Terminal sterilization and stability assay of formulated suspension; assay type: physicochemical
Description: as §1

[4] = tested on: choroid neovascularization lesions; experiment: Laser-induced choroid neovascularization model in rats; assay type: in vivo, Brown Norway rats; conditions: intravitreal injection 50 μg/eye; fluorescein angiography Day 22
Method: The tolerability, efficacy, and ocular distribution were evaluated in a laser-induced choroid neovascularization model in rats. […] In this 22-day study, effects of local administration of the multi-target (i.e., multi-target kinase) inhibitors nintedanib and lenvatinib were examined on the development of new vessels. Vehicle and positive control groups were included in the study. Female Brown Norway rats were divided into 7 separate treatment groups. On Day 1, laser treatments were performed on all animals using a 520 nm thermal laser to generate a total of three lesions per eye. […] On Day 3, bilateral intravitreal injections of vehicle, 5 μg/eye of rat anti-VEGF antibody, 50 μg/eye of nintedanib, or 50 μg/eye of lenvatinib were performed. On Day 22, fluorescein angiography was performed on all animals, and the lesion sizes/areas were determined using image analysis software (Image J). […] Concentrations of test compounds in ocular tissues and plasma were measured by LCMS-MS after intravitreal or eyedrop administration in rats. […] The eyedrop administration produced higher drug concentrations in the ocular surface, such as conjunctiva, than the intravitreal injection. Three times daily eyedrop administration maintained higher concentrations in plasma than a single intravitreal injection.

[5] = tested on: linear incision wound sites; experiment: Intradermal injection along linear incision wounds, histological evaluation; assay type: in vivo, minipigs; conditions: for granulation tissue formation compared to vehicle treated control wounds / presence of myofibroblasts compared to vehicle treated control wounds: 2% suspension (sorafenib 1% suspension); for SMA staining / dermis fibrin / dermis fibroplasia / dermis provisional matrix / epidermis hyperplasia / inflammation / subcutis fibroplasia / subcutis mixed cell infiltrate: microscopic grade over 29 days
Method: The purpose of this study was to evaluate the suspension formulation when administered via intradermal injection with axitinib, nintedanib, sorafenib, and lenvatinib to the dorsal skin along linear incisions of minipigs.
Four male minipigs were dosed. Animals were dosed once via intradermal injection along the edges of each of 10 wound sites for each animal (5 wounds on each side of the dorsum [perpendicular to the spine], approximately 3 cm in length and 3 cm distance from the spine). Axitinib, nintedanib, lenvatinib, and the vehicle control article were administered via eight 0.1 mL intradermal injections around each respective wound site (one injection/cm on both sides of the wound), for a total volume of 0.8 mL/wound site. Sorafenib was administered via the same method at a volume of 0.2 mL/injection, for a total volume of 1.6 mL/wound site. The vehicle control article was Vehicle for Test Articles axitinib, nintedanib, lenvatinib, and sorafenib.
A generalized measure of inflammation, including inflammatory cell infiltrate, fibrin deposition, fibroplasia, epithelial hyperplasia and areas of tissue necrosis were assessed microscopically. […] For test agent treated wounds, all were graded as slight on Day 4, and there was no consistent difference over time as compared to the control group.

[6] = rabbit, in vivo; for tissue concentrations in the retina and choroid / depot and streaks in vitreous humor by fundus imaging / intravitreal dose remained in the vitreous humor: Dutch Belted
Method: (§2) This study evaluated the tolerability and dispersion of the formulations of nintedanib and lenvatinib over 42 days in the posterior segment of the eyes. A single 50 μL intravitreal administration of the 1% suspension was administered to Dutch Belted rabbits.

[7] = systemic; literature or US label; cited from earlier work
[8] = in vivo; conditions: Dutch Belted, rabbit
Method: as §2

[9] = in vivo; design: species or system New Zealand White rabbits; conditions: male, New Zealand White, rabbit
Method: Five to seven male New Zealand White rabbits were used per treatment group. Each eye received a 35 μl eyedrop of vehicle, or respective drugs (0.3%) three times daily for 10 days. After the last dose on Day 11, the animals were sacrificed and eyes were enucleated, and plasma and the ocular tissues were collected. Tissue and plasma concentrations of these compounds were measured by LC-MS/MS.

[10] = rabbit, in vivo
Method: (§3) This study evaluated the local tolerance of vehicle, axitinib, pirfenidone, sorafenib and lenvatinib and ocular distribution of axitinib, sorafenib and lenvatinib (0.3% w/w) when administered by topical ocular instillation in the eyes of New Zealand white rabbits (n=6 per group). […] On Dosing Day 5, the animals were sacrificed and eyes were enucleated. Ocular and plasma concentrations of select compounds were measured by LC-MS/MS.

[11] = in vivo; conditions: New Zealand White, rabbit
Method: as §3

solubility [1] [µg/mL] | API Raw Material PSD D50 [2] | API Raw Material PSD D90 [2] | Formulated Suspension Osmolality [2] [mOsm/kg] | Formulated Suspension Particle size distribution D50 [2] | Formulated Suspension Particle size distribution D90 [2] | Formulated Suspension pH [2] | Formulated Suspension Syringeability [2] | Assay (% of labeled claim) of Formulated Suspension, Initial ([3]; Autoclave) | SMILES | Assay (% of labeled claim) of Formulated Suspension, 4 months (40° C./75% RH) ([3]; Gamma irradiation) | Assay (% of labeled claim) of Formulated Suspension, 6 weeks (40° C./75% RH) ([3]; Gamma irradiation) | Assay (% of labeled claim) of Formulated Suspension, Initial ([3]; Gamma irradiation) | lesion sizes relative to vehicle-treated eyes [4] | granulation tissue formation compared to vehicle treated control wounds [5] | presence of myofibroblasts compared to vehicle treated control wounds [5] | SMA staining [5] | dermis fibrin [5] | dermis fibroplasia [5] | dermis provisional matrix [5] | epidermis hyperplasia [5] | other results
9 (≈ 16.7 µM) | D50: 68 | D90: 105 | 207 | D50: 22 | D90: 35 | 7.6 | Pass 23G | 96.0 % of labeled claim | COC(=O)c1ccc2c(c1)NC(=O)/C2=C(\Nc1ccc(N(C)C(=O)CN2CCN(C)CC2)cc1)c1ccccc1 [Nintedanib] | 90.0 % of labeled claim and 97.9 % of labeled claim | 98.1 % of labeled claim and 99.7 % of labeled claim | 101.8 % of labeled claim and 103.0 % of labeled claim | significantly reduced lesion sizes | delay in granulation tissue formation | prolonged presence of myofibroblasts | none to moderate | slight to moderate | none to slight | marked | minimal to moderate | inflammation [5]: slight to moderate; subcutis fibroplasia [5]: none to moderate; subcutis mixed cell infiltrate [5]: slight to marked; tissue concentrations in the retina and choroid [6]: higher than 1 μg/gm; depot and streaks in vitreous humor by fundus imaging ([6]; 42 days): remained present out to Day 42 postdose; intravitreal dose remained in the vitreous humor ([6]; 42 days): 4-7%; Concentrations in conjunctival tissue [6]: mostly under quantitation limit; terminal plasma half-life in man [7]: 9.5 h; concentration at 29 days [8]: 0.252 ng/mL; concentration at 42 days [8]: 0.348 ng/mL
4 (≈ 9.37 µM) | D50: 164 | D90: 346 | 201 | D50: 7 | D90: 25 | 7.6 | Pass 27G | 99.0 % of labeled claim | COc1cc2nccc(Oc3ccc(NC(=O)NC4CC4)c(Cl)c3)c2cc1C(N)=O [Lenvatinib] | 99.8 % of labeled claim and 100.2 % of labeled claim | 99.2 % of labeled claim and 99.8 % of labeled claim | 101.4 % of labeled claim and 102.4 % of labeled claim | significantly reduced lesion sizes | delay in granulation tissue formation | prolonged presence of myofibroblasts | slight | minimal to slight | minimal to slight | marked to minimal | slight to none | lesion sizes relative to positive control, rat anti-VEGF [4]: significantly reduced lesion sizes; concentration at 11 day (after the last dose) [9]: 98.5 ng/mL; inflammation [5]: slight to marked; subcutis fibroplasia [5]: moderate to minimal; subcutis mixed cell infiltrate [5]: slight to severe; tissue concentrations in the retina and choroid [6]: over 1 μg/gm; intravitreal dose remained in the vitreous humor ([6]; 29 days): 9-17%; depot and streaks in vitreous humor by fundus imaging ([6]; 42 days): remained present out to Day 42 postdose; intravitreal dose remained in the vitreous humor ([6]; 42 days): 3-9%; concentrations in the choroid and retina [10]: significant concentrations; drug concentrations in anterior tissues of conjunctiva, sclera and cornea [10]: high drug concentrations; terminal plasma half-life in man [7]: 30 h; concentration at 29 days [8]: 4.94 ng/mL; concentration at 42 days [8]: 3.91 ng/mL; concentration at 5 day of dosing [11]: 131 ng/mL
